In US12473332B2, “Modified peptides and associated methods of use” (Advanced Technologies For Novel Therapeutics, LLC, priority 2019, dated 2025):
Where no end group is shown, it is not given here.

How the values were obtained:
PKAc = PKAc (Homo sapiens, UniProt P17612); assay: independent kinase assays on PKAc catalytic activity; type: biochemical
AKT-PKAc complex = target: T1, AKT-PKAc complex (Mus musculus, UniProt P31750); assay: AKT immunoprecipitation from striatum after stereotactic injection; type: in vivo, C57BL/6 mouse; conditions: ZaTa vs vehicle hemisphere
T1 construct: ZaTa could disrupt the physical complex between AKT and PKAc in vivo; from tissue; host or cells: mouse striatum
T1 sequence (P31750 whole entry, one chain of several): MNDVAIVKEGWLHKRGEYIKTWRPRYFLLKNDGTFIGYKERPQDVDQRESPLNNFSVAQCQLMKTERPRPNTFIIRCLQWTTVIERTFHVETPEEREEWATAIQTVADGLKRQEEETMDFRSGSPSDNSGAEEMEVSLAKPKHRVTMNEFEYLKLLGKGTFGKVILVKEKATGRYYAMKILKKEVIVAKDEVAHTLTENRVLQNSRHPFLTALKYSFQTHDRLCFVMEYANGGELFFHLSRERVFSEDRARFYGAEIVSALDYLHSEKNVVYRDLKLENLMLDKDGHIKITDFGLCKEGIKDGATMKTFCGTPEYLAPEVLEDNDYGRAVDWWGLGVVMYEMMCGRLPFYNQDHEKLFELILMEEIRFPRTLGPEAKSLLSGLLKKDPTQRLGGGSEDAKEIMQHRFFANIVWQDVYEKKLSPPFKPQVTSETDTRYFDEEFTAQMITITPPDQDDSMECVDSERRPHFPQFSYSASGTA
Protocol: The phenotypic consequence of disrupting the AKT-PKAc complex was also determined. ZaTa peptide was injected into the striatum of one hemisphere of the brain and DMSO, as vehicle, was injected into the other brain hemisphere of an adult C57BL/6 mouse under anesthesia. The brain was removed and dissected. Equal protein amounts from each hemisphere were subjected to immunoprecipitation by an anti-AKT antibody. […] To compare PKAc protein levels in the ZaTa- and vehicle-treated brain hemisphere lysates, western blot analysis was conducted.

primary neurons = assay: TUNEL assay in primary cortical culture; type: cell-based; conditions: 1 μM or 5 μM, 72-hour treatment, vs control peptide
Protocol: It is now well-established that AKT protects against apoptosis through phosphorylation and inhibition of pro-apoptotic mediators such as BAD, FOXO family members and IKK-β (Datta, et al. (1999) Genes Dev. 13:2905-2927). […] Primary neurons were treated with DMSO, 1 μM or 5 μM of either ZaTa or the control peptide for a duration of 1, 3, 16, 24, 48 or 72 hours. The number of apoptotic cells was counted following the TUNEL assay. […] The increase in the number of apoptotic neurons following treatment with ZaTa was consistent with its potent intra-neuronal inhibition of AKT.

[1] = trypan blue staining, live and dead cell count; type: cell-based; conditions: 12 to 72 hours
From the text: Therefore, in addition to capturing live images, cells were stained with trypan blue at different time intervals following treatment with ZaTa and counted by a light microscope using a hemocytometer.

N2a cells [2] = assay: AKT-PKAc complex and neurite count in cultured N2a neurons; type: cell-based; conditions: 24 hours treatment
Protocol: Accordingly, the stability and phenotypic consequences of the AKT-PKAc complex was also analyzed in cultured neurons. N2a cells were treated with vehicle, ZaTa or control peptide for 24 hours. Media was removed after the 24-hour treatment and an equal number of cells from each treatment group was either cultured for another 24 hours without treatment, or lysed and subjected to immunoprecipitation with an antibody against AKT. Those cells cultured for another 24 hours were also harvested and subjected to immunoprecipitation. In parallel, the number of individual neurons with neurites was counted. […] Live images of N2a neurons were captured following treatment with vehicle or ZaTa (2 or 5 μM). […] ZaTa-mediated changes included a progressive loss of neurites, inhibition of new neurite formation, loss of cell motility, as well as formation of large cell colonies.

N2a cells [3] = assay: MTT-based proliferation assay; type: cell-based
Protocol: AKT affects a network that positively regulates G1/S cell cycle progression through several mechanisms that involve the expression and subcellular localization of the CDK inhibitor p27^Kip1 (Blain and Massague (2002) Nat. Med. 8:1076-1078; Liang, et al. (2002) supra; Shin, et al. (2002) supra; Viglietto, et al. (2002) supra). Based on these studies, the effect of ZaTa peptide on cell proliferation was assessed. […] Capturing live images of cultured N2a cells in the presence of different concentrations of the ZaTa peptide confirmed an obvious reduction in the number of dividing cells.
Based on the importance of the C-terminal arm of ZaTa for its inhibitory action on AKT, it was determined whether the free hydroxyl groups on residues Thr-8, Thr-10 (equivalent to Thr-197 in full-length PKAc), Thr-14 and Tyr-17 were important for the biological activity of this peptide. Mutants of ZaTa peptide were synthesized by replacing Thr-8 or Thr-10 residues with Asp (ZaTa^T8D and ZaTa^T10D, respectively) as an amino acid with a negatively charged side chain. Mutants of ZaTa with the hydrophilic positively charged amino acid Arg at either position Thr-14 or Tyr-17 (ZaTa^T14R and ZaTa^Y17R, respectively) were also synthesized. […] The inhibitory effect of ZaTa peptide on cell proliferation was reversible, to a large extent, after the removal of ZaTa treatment.

Question: What does the source list for “AKRVKGRTWTLCGTPEY [Peptide 53, A-K-R-V-K-G-R-T-W-T-L-C-G-T-P-E-Y]”?
Answer: inhibitory effect on catalytic activity of PKAc (PKAc): did not exhibit any inhibitory effect; amount of PKAc in physical contact with AKT (AKT-PKAc complex): dramatically reduced; number of TUNEL-positive cells (primary neurons): marked dose-dependent increase in the number of TUNEL-positive cells; number of dead cells [1]: a significant increase in the number of dead cells was not seen; amount of PKAc in physical contact with AKT (N2a cells [2]): reduced the amount of PKAc in physical contact with AKT; number of neurons with neurites (N2a cells [2]): significant reduction in the number of neurons with neurites; number of live cells after removal of treatment (reversibility) (N2a cells [3]; 24 hours after removal of 10 μM, vs DMSO vehicle): no significant differences in the number of live cells; number of live cells (N2a cells [3]; MTT): dose-dependent decrease in the number of live cells; dose causing a significant decrease in the number of live cells (N2a cells [3]; doses as low as): 2 µM
